The source made the active and inactive calls. The rule behind the calls is not given here.
Key:
[1] = target: T1, Wee1-like protein kinase 2 (Homo sapiens, UniProt P0C1S8)
Target sequence in this assay (P0C1S8 whole entry, looked up): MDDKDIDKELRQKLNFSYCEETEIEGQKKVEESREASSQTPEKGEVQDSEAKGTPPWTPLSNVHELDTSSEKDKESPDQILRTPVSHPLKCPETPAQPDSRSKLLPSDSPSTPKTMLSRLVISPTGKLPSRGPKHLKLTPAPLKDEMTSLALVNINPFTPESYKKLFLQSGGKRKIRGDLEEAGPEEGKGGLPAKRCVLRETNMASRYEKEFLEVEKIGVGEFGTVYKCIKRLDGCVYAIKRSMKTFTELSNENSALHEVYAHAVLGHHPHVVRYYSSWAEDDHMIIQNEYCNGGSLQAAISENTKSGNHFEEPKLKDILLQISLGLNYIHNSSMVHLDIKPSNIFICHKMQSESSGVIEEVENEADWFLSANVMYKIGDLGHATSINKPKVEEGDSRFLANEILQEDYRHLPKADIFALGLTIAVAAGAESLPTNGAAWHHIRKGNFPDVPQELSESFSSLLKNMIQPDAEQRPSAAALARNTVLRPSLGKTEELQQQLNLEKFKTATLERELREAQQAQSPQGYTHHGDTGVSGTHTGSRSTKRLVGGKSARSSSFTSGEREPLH

MM1.S = test: Antiproliferative activity against human MM1S cells measured after 72 hrs by CellTiter-Blue assay; assay type: functional, cell-based
Wee1-like protein kinase [2] = target: T2, Wee1-like protein kinase (Homo sapiens, UniProt P30291)
Target sequence in this assay (P30291 whole entry, looked up): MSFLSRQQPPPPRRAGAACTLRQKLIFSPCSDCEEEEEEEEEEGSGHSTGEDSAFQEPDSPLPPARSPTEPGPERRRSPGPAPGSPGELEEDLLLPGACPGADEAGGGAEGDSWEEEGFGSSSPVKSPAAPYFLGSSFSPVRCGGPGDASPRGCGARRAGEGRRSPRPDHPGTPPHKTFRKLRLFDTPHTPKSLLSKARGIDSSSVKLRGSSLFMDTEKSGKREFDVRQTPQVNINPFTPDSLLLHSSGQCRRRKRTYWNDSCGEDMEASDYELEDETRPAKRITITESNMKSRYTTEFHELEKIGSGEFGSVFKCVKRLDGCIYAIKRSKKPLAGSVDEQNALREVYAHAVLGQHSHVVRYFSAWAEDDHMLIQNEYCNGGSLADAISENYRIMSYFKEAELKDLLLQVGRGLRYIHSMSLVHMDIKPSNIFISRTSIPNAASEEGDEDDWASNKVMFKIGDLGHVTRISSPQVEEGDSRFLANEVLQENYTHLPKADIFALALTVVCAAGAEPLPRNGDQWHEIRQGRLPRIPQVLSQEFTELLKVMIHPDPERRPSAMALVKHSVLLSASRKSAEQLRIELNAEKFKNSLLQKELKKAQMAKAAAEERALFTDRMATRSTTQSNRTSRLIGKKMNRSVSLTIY

HEK-293T = test: Antiproliferative activity against HEK293T cells measured after 72 hrs by CellTiter-Blue assay; assay type: cell-based; settings: Homo sapiens
[3] = target: T3, Membrane-associated tyrosine- and threonine-specific cdc2-inhibitory kinase (Homo sapiens) (UniProt Q99640)
T3 sequence (whole entry): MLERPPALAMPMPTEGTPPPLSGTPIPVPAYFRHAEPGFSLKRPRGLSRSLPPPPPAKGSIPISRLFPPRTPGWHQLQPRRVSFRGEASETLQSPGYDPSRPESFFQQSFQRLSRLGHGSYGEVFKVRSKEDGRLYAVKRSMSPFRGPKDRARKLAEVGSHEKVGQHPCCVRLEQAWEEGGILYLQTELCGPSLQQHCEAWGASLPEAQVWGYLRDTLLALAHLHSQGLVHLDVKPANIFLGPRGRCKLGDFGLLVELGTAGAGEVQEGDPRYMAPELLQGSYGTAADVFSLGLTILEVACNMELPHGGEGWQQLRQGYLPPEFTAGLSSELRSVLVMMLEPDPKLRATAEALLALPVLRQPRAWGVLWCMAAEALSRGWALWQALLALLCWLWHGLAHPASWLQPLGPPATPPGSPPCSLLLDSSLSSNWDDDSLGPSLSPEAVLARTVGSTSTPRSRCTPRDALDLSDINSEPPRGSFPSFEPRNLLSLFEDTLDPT

[4] = target: T1, Wee1-like protein kinase 2; test: Binding affinity to recombinant human N-terminal His6-tagged Wee2 kinase domain (202 to 492 residues) expressed in Escherichia coli BL21 (DE3) by isothermal titration calorimetry
Target sequence in this assay (P0C1S8 whole entry): as the sequence (P0C1S8 whole entry, looked up) above

[5] = target: T4, Membrane-associated tyrosine- and threonine-specific cdc2-inhibitory kinase (Homo sapiens, UniProt Q99640); test: Binding affinity to recombinant human N-terminal His6-tagged Myt1 kinase domain (75 to 361 residues) by isothermal titration calorimetry
T4 sequence (Q99640 whole entry): T3 sequence (whole entry)

MDA-MB-231 = test: Antiproliferative activity against human MDA-MB-231 cells measured after 72 hrs by CellTiter-Blue assay; assay type: functional, cell-based; settings: MDA-MB-231, 72 h
Wee1-like protein kinase [6] = target: T2, Wee1-like protein kinase; test: Binding affinity to recombinant human N-terminal His6-tagged Wee1 kinase domain (291 to 575 residues) expressed in Escherichia coli BL21 (DE3) by isothermal titration calorimetry
Target sequence in this assay (P30291 whole entry): as the sequence (P30291 whole entry, looked up) above

Wee1-like protein kinase [7] = target: T2, Wee1-like protein kinase; settings: at 0.1 to 10 µM
Target sequence in this assay (P30291 whole entry, looked up): as above

Wee1-like protein kinase [8] = target: T2, Wee1-like protein kinase; settings: 0.1 to 10 uM
Target sequence in this assay (P30291 whole entry, looked up): as above

Wee1-like protein kinase [9] = target: T2, Wee1-like protein kinase; test: Inhibition of Wee1 in HEK293T cells assessed as decrease in CDK1 phosphorylation at Tyr15 at 0.1 to 10 uM after 6 hrs by Western blot method; assay type: cell-based
Target sequence in this assay (P30291 whole entry): as the sequence (P30291 whole entry, looked up) above

Wee1-like protein kinase [10] = target: T2, Wee1-like protein kinase; test: Inhibition of Wee1 in HEK293T cells assessed as decrease in CDK1 phosphorylation at Tyr15 at 0.01 to 10 uM after 6 hrs by Western blot method; assay type: cell-based
Target sequence in this assay (P30291 whole entry): as the sequence (P30291 whole entry, looked up) above

[11] = Binding affinity to human FLT3 D835V-mutant assessed as dissociation constant by quantitative real-time PCR method
[12] = target: T5, Serine/threonine-protein kinase PLK1 (Homo sapiens, UniProt P53350)
[13] = target: T5, Serine/threonine-protein kinase PLK1; settings: 0.1 to 10 uM
[14] = target: T1, Wee1-like protein kinase 2; test: Binding affinity to recombinant human full-length N-terminal His8-tagged Wee2 (1 to 567 residues) expressed in human Expi293F cells assessed as dessociation constant by quantitative real-time PCR method; assay type: cell-based
Target sequence in this assay (P0C1S8 whole entry): as the sequence (P0C1S8 whole entry, looked up) above

T5 sequence (P53350 whole entry): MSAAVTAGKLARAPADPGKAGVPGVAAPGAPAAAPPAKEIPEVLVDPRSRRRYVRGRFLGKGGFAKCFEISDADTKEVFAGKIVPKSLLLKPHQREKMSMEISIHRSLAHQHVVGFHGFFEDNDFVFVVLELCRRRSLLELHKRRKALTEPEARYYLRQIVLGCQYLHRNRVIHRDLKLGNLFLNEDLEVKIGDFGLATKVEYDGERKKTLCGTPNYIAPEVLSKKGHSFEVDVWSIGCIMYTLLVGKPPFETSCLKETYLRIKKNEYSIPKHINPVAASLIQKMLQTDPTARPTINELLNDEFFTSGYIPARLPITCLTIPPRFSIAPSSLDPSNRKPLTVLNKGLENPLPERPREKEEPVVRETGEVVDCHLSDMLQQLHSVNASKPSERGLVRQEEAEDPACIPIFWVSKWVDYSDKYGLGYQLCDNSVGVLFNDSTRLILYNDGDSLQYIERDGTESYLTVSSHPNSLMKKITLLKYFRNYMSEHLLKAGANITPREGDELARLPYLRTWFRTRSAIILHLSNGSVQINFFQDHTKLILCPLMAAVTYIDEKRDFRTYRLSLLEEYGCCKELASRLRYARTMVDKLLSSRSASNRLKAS

Compound	ΔTm [1]	IC50 (MM1.S)	ΔTm (Wee1-like protein kinase [2])	IC50 (HEK-293T)	ΔTm [3]	Kd ([4]; read-out: Kd)	Kd ([5]; read-out: Kd)	IC50 (MDA-MB-231)	other results
COc1cc2c(Nc3cc(Cl)c(OC)c(Cl)c3)c(C#N)cnc2cc1OCCCN1CCN(C)CC1	12.3 °C	3900 nM	10 °C	1600 nM	3 °C	4.7 nM	444 nM	1800 nM	
CC(=O)NCC(=O)N1[C@@H]2CC[C@H]1c1ccc(Nc3ncc(C(F)(F)F)c(NC4CCC4)n3)cc12 (single isomer, unassigned) [PF-03814735]	8.5 °C		7.9 °C		-0.1 °C	128 nM			Kd (Wee1-like protein kinase [6]; read-out: Kd): 78.7 nM; Kd [5]: Not Active
CCN(CC)CCOc1ccc(Nc2ncc3cc(-c4c(Cl)cccc4Cl)c(=O)n(C)c3n2)cc1 [PD-0166285]		520 nM		290 nM		5 nM	247 nM	160 nM	
CNC(=O)c1nn(C)c2c1C(C)(C)Cc1cnc(Nc3ccc(N4CCN(C)CC4)cc3)nc1-2 [MILCICLIB]	11.5 °C		13.4 °C		3.6 °C	26.6 nM	990 nM		inhibition (Wee1-like protein kinase [7]): Dose-dependent effect; Kd (Wee1-like protein kinase [6]; read-out: Kd): 13.6 nM; inhibition (Wee1-like protein kinase [8]): Dose-dependent effect
CCOc1cc2ncc(C#N)c(Nc3ccc(F)c(Cl)c3)c2cc1NC(=O)/C=C/CN(C)C [PELITINIB]	5.6 °C				2.4 °C	498 nM	1100 nM		
CN1CCN(CCOc2cc(OC3CCOCC3)c3c(Nc4c(Cl)ccc5c4OCO5)ncnc3c2)CC1 [SARACATINIB]	0.65 °C		1.2 °C		2.1 °C				Kd (Wee1-like protein kinase [6]): Not Active; Kd [4]: Not Active
CC[C@@H]1C(=O)N(C)c2cnc(Nc3ccc(C(=O)NC4CCN(C)CC4)cc3OC)nc2N1C1CCCC1 [BI-2536]									inhibition (INH) (Wee1-like protein kinase [9]): Not Active
C[C@@H](Oc1cc(-n2cnc3ccc(CN4CCN(C)CC4)cc32)sc1C(N)=O)c1ccccc1C(F)(F)F [GSK-461364]		1 to 3.5 nM		1 to 3.5 nM				1 to 3.5 nM	inhibition (Wee1-like protein kinase [7]): inactive; inhibition (INH) (Wee1-like protein kinase [10]): Not Active
COc1cc(Nc2c(C#N)cnc3cc(OCCCN4CCN(C)CC4)c(OC)cc23)c(Cl)cc1Cl					3.9 °C				
C=CCn1c(=O)c2cnc(Nc3ccc(N4CCN(C)CC4)cc3)nc2n1-c1cccc(C(C)(C)O)n1 [ADAVOSERTIB]	11.6 °C	310 nM	15.4 °C	290 nM	3.3 °C	27 nM		260 nM	inhibition (Wee1-like protein kinase [7]): Active; Kd [11]: 7.5 nM; inhibition (INH) (Wee1-like protein kinase [9]): Active; Kd [12]: 3 nM; inhibition [13]: Active; Kd [14]: 3.9 nM
Cc1nc(Nc2ncc(C(=O)Nc3c(C)cccc3Cl)s2)cc(N2CCN(CCO)CC2)n1	9.2 °C								
